Measured values reported in US20260294905A1, “USE OF PLURALITY OF COMPOUNDS IN PREPARATION OF DRUG FOR TREATING MYELOPROLIFERATIVE NEOPLASMS” (THE SECOND XIANGYA HOSPITAL OF CENTRAL SOUTH UNIVERSITY, priority 2022, published 2026).
Several values for one entry are separate records, joined by “and”; a condition that tells them apart may be missing. Identical values can stand only once. Entries after “also recorded” stand apart in the source; their conditions may differ.

Legend:
[1] = system: HEL cells (human erythroleukemia cell line); assay: CellTiter-Lumi luminescence proliferation of naive HEL cells, 48 h; format: cell-based; settings: for inhibition of proliferation of HEL cells (in words): 0.1-10 μM; for activity at 0.1 µM / activity at 0.3 µM / activity at 1 µM / activity at 3 µM / activity at 10 µM: Homo sapiens, 48 h, vs DMSO control, read-out: average proliferation rate of HEL cells
Method: (§1) HELs (Human erythroleukemia cell lines) and Ruxolitinib-resistant HEL cells were both cultured in a RPMI medium (Gibco) containing 20% heat-inactivated fetal bovine serum (Gibco) and 1% penicillin/streptomycin.
(§2) Ruxolitinib and other compounds were all purchased from Selleck, dissolved in DMSO with a stock solution concentration of 10 mM, and cryopreserved at −80° C. The working solution was diluted to a specified multiple using a RPMI medium and then used for treating cells. Ruxolitinib was specifically ruxolitinib phosphate.
(§3) To detect the antiproliferative effect of the inhibitor, the aforementioned cell lines were cultured at 3,000 cells/100 μL of the system per well, added with increasing concentrations of Ruxolitinib (concentration gradients of HEL cells: 0, 0.1, 1, 2.5, 5 μM; or 0, 0.1, 0.3, 1, 3, 10 μM), and added with DMSO to make up to the same amount. 4 parallel replicate groups were set up, and 3 blank wells (wells containing culture media without cells) were set up.
(§4) A calculation formula of the cell proliferation rate was: cell proliferation rate=(Luminescence value of the group added with the drug-average Luminescence value of the blank wells)/(Luminescence value of the DMSO control group-average Luminescence value of the blank wells)×100%.
In order to detect the effects of the compounds on the proliferation abilities of drug-resistant myeloproliferative neoplasm cells, the method was to treat the HEL naïve cell lines with increasing concentrations of Ruxolitinib and the compounds respectively, and to detect the proliferation of the cells by a CellTiter-Lumi™ luminescence method.

[2] = system: HEL^RE cells (Ruxolitinib-resistant HEL); assay: CellTiter-Lumi luminescence proliferation of Ruxolitinib-resistant HEL^RE cells, 48 h; format: cell-based, human; settings: HEL^RE cells; for inhibition of proliferation of HEL^RE cells (in words): 0.1-10 μM; for activity at 0.1 µM / activity at 0.3 µM / activity at 1 µM / activity at 3 µM / activity at 10 µM: Homo sapiens, 48 h, vs DMSO control, read-out: average proliferation rate of HEL^RE cells
Excerpt: as §1
A Ruxolitinib-resistant HEL model, i.e., a HEL^RE model, was constructed by starting the addition of Ruxolitinib at a concentration lower than the IC50 of naïve cells and slowly incrementing the concentration to a high concentration, and preventing the cells from being killed. Our starting concentration was 0.1 μM. The drug was added upon occurrence of cell proliferation. The drug addition gradient was an increment at a multiple of 1.25, and the final concentration was 2.0 μM. Stable drug-resistant cells were obtained after 4-6 weeks.
as §2, §3, §4
A method for evaluating whether the model was successfully constructed was to compare the IC50s of resistant cells and naïve cells.
In order to detect the effects of five compounds on the proliferation abilities of drug-resistant myeloproliferative neoplasm cells, the method was to treat HEL^RE with increasing concentrations of Ruxolitinib and the five compounds respectively, and to detect the proliferation of the cells by a CellTiter-Lumi™ luminescence method.

[3] = system: HEL cells (human erythroleukemia cell line); assay: Annexin V-PI staining and flow cytometry, apoptosis of HEL cells, 24 h; format: cell-based; settings: for promotion of apoptosis of HEL cells (in words): 0.1-10 μM
Method: • 1. the cell lines and inhibitors were the same as those in Example 1. • 2. detection of cell apoptosis
(§5) To detect the apoptosis-promoting effect of the inhibitors, HEL naïve cell strains were treated with Ruxolitinib and the compounds for 24 hours respectively (with concentrations of: 0, 0.1, 0.5, 1 μM or 0, 0.1, 0.3, 1, 3, 10 μM), and added with DMSO to make up to the same amount. 3 parallel replicate groups were set up, and cell apoptosis was detected by Annexin V and PI staining followed by flow cytometry.
(§6) A calculation formula of cell apoptosis rate was: cell apoptosis rate=the ratio of early apoptotic cells (Annexin V^+/PI^−)+the ratio of late apoptotic cells and necrotic cells (Annexin V^+/PI^+).

[4] = system: HEL^RE cells (Ruxolitinib-resistant HEL); assay: Annexin V-PI staining and flow cytometry, apoptosis of HEL^RE cells; format: cell-based, human; settings: for average apoptosis rate of HEL-RE cells: 24 h; for promotion of apoptosis of HEL^RE cells (in words): 0.1-10 μM
Method: as §5, §6
In order to detect the effects of compounds on the abilities of drug-resistant myeloproliferative neoplasm cells, the method was to treat HEL^RE with increasing concentrations of Ruxolitinib and the compounds, and to detect cell apoptosis by Annexin V and PI staining followed by flow cytometry.

[5] = system: progressive or metastatic solid tumors; settings: RP2D 2.7 mg, cited from earlier work
[6] = system: preclinical model including melanoma; settings: cited from earlier work
[7] = orally once a week, RP2D 420 mg/m^2 (not exceeding 600 mg); cited from earlier work
neuroblastoma cells = settings: cited from earlier work
[8] = system: neuroblastoma mouse model; settings: cited from earlier work
[9] = system: non-small cell lung cancer; settings: non-small cell lung cancer patients, RP2D 275 mg per day; cited from earlier work

Structure (SMILES) | inhibition of proliferation of HEL cells (in words) [1] | activity at 0.1 µM [1] [%] | activity at 0.3 µM [1] [%] | activity at 1 µM [1] [%] | activity at 3 µM [1] [%] | activity at 10 µM [1] [%] | inhibition of proliferation of HEL^RE cells (in words) [2] | activity at 0.1 µM [2] [%] | activity at 0.3 µM [2] [%] | activity at 1 µM [2] [%] | activity at 3 µM [2] [%] | activity at 10 µM [2] [%] | average apoptosis rate of HEL cells ([3]; 0.1 μM) | average apoptosis rate of HEL cells ([3]; 0.3 μM) | average apoptosis rate of HEL cells ([3]; 1 μM) | average apoptosis rate of HEL cells ([3]; 3 μM) | average apoptosis rate of HEL cells ([3]; 10 μM) | promotion of apoptosis of HEL cells (in words) [3] | average apoptosis rate of HEL-RE cells ([4]; 0.1 μM) | average apoptosis rate of HEL-RE cells ([4]; 0.3 μM) | other results
CNS(=O)(=O)Nc1nccc(Cc2c(C)c3ccc(Oc4ncccn4)cc3oc2=O)c1F [RO5126766] | can successfully inhibit the proliferation of the HEL cells; also recorded: could inhibit the proliferation of the HEL cells, and this effect increased with increase in the drug concentration | 85.8 ± 2.75 | 89 ± 13.5 | 83.4 ± 3.31 | 61.6 ± 3.79 | 47.1 ± 5.47 | could inhibit the proliferation of the HEL^RE cells, and this effect increased with increase in the drug concentration | 48.1 ± 3.37 | 41.4 ± 3.16 | 35.2 ± 2.89 | 31.5 ± 1.9 | 27.7 ± 2.34 | 6.00±0.290% and 6.00% | 6.96±1.16% and 6.96% | 6.11±0.640% and 6.11% | 8.32±2.69% and 8.32% | 6.73±1.20% and 6.73% | could not promote apoptosis of the HEL cells | 6.25±0.920% and 6.25% | 5.88±1.25% and 5.88% | average apoptosis rate of HEL-RE cells ([4]; 1 μM): 7.32±1.74% and 7.32%; average apoptosis rate of HEL-RE cells ([4]; 3 μM): 4.71±0.350% and 4.71%; average apoptosis rate of HEL-RE cells ([4]; 10 μM): 5.42±0.830% and 5.42%; promotion of apoptosis of HEL^RE cells (in words) [4]: could not promote apoptosis of the HEL^RE cells; anti-tumor activity ([5]; 4 consecutive days a week for 4 weeks): good anti-tumor activity; side effects [5]: tolerable side effects
C[C@@H](NC(=O)c1ncnc(N)c1Cl)c1ncc(C(=O)Nc2cc(C(F)(F)F)c(Cl)cn2)s1 [MLN2480] | could not inhibit the proliferation of the HEL cells | 98.5 ± 2.62 | 97.9 ± 3.55 | 97.3 ± 0.78 | 98.3 ± 0.65 | 97.6 ± 3.47 | could inhibit the proliferation of drug-resistant myeloproliferative neoplasm cells, and this effect was increased with the increase of the drug concentration | 103 ± 8.58 | 75.1 ± 3.54 | 46.5 ± 9.45 | 18.9 ± 4.22 | 10.3 ± 0.49 | 4.61±2.768% and 4.61% | 3.85±0.101% and 3.85% | 5.53±1.22% and 5.53% | 10.04±2.663% and 10.04% | 8.8±1.063% and 8.8% | could not promote the apoptosis of myeloproliferative neoplasm cells | 6.54±0.560% and 6.54% | 7.80±0.900% and 7.80% | overall effectiveness among the compounds ([2]; proliferation and apoptosis taken together): more effective; average apoptosis rate of HEL-RE cells ([4]; 1 μM): 10.9±0.390% and 10.9%; average apoptosis rate of HEL-RE cells ([4]; 3 μM): 15.5±0.580% and 15.5%; average apoptosis rate of HEL-RE cells ([4]; 10 μM): 13.8±0.775% and 13.8%; promotion of apoptosis of HEL^RE cells (in words) [4]: could promote apoptosis of Ruxolitinib-resistant myeloproliferative neoplasm cells, and this effect was increased with the increase of the drug concentration; also recorded: can promote the apoptosis of the HEL^RE cells; anti-tumor activity [6]: good anti-tumor activity; safety [7]: good safety and low toxic and side effects
COc1cc2ncnc(Oc3cccc(NC(=O)Nc4cc(C(C)(C)C(F)(F)F)on4)c3)c2cc1OC [Agerafenib] | can successfully inhibit the proliferation of the HEL cells; also recorded: could inhibit the proliferation of the HEL cells, and this effect was increased with the increase of the drug concentration | 90.1 ± 3.01 | 93.8 ± 12.4 | 83.2 ± 4.45 | 70.3 ± 3.47 | 40.1 ± 8.26 | could inhibit the proliferation of the HEL^RE cells, and this effect was increased with the increase of the drug concentration | 4.26 ± 0.46 | 2.77 ± 0.43 | 2.75 ± 0.94 | 2.21 ± 0.04 | 1.86 ± 0.23 | 4.41±0.630% and 4.41% | 4.98±1.09% and 4.98% | 3.42±0.140% and 3.42% | 5.27% | 5.43±0.720% and 5.43% | could not promote apoptosis of the HEL cells | 7.05±0.920% and 7.05% | 5.33±0.430% and 5.33% | average apoptosis rate of HEL-RE cells ([4]; 1 μM): 5.11±0.210% and 5.11%; average apoptosis rate of HEL-RE cells ([4]; 3 μM): 7.37±0.220% and 7.37%; average apoptosis rate of HEL-RE cells ([4]; 10 μM): 8.22±0.390% and 8.22%; promotion of apoptosis of HEL^RE cells (in words) [4]: could not promote apoptosis of the HEL^RE cells; proliferation and colony formation of neuroblastoma cells (neuroblastoma cells; in vitro): able to inhibit the proliferation and colony formation of neuroblastoma cells in vitro; combination with traditional chemotherapy drugs (neuroblastoma cells; with traditional chemotherapy drugs): had a synergistic effect with traditional chemotherapy drugs; tumor growth and survival [8]: able to inhibit tumor growth of and prolong the survival of mice significantly; anti-tumor activity [9]: good anti-tumor activity
